# Assay results from US6033867A, “Fructosyl amino acid oxidase, process for producing the same, and method of assaying amadori compounds using the enzyme” (Kyoto Daiichi Kagaku Co., Ltd., priority 1995, dated 2000).
# Assays:
# FAOD-A [1] = assay: Effect of various inhibitors on FAOD-A activity; assay type: biochemical, A. terreus IFO6365; conditions: for inhibition of FAOD-A activity, in words: PCMB 0.1 mM, others 1 mM
# Description: (§1) To an enzyme solution was added a solution containing a metal ion to be tested at a final concentration of 1 mM in 0.1 M Tris-HCl buffer (pH 8.0). After 5-minute-incubation at 30° C., the enzyme activity was assayed.
# (§2) The inhibitory effect of various substances was tested in a manner substantially analogous to that described in (1) above. In the present test, the final concentration of parachloro mercuric benzoate (PCMB) is 0.1 mM while that of others 1 mM.
# FAOD-A [2] = assay: Effect of metal ion on the activity of FAOD-A; assay type: biochemical, A. terreus IFO6365; conditions: for effect of metal ion on FAOD-A, in words: 1 mM
# Description: as §1
# FAOD-L [3] = target: T1, FAOD-L (Aspergillus terreus, UniProt Q92204); assay: Effect of metal ion on the activity of FAOD-L; assay type: biochemical, A. terreus GP1; conditions: for relative activity (%): material 1 mM, 0.1 M Tris-HCl pH 8.0, 5 min at 30° C., None = 100; for effect of metal ion on FAOD-L, in words: 1 mM
# T1 construct: 94 kDa by gel filtration, 48 kDa subunit, so homodimer
# Description: as §1
# FAOD-L [4] = target: T1, FAOD-L; assay: Effect of various inhibitors on FAOD-L activity; assay type: biochemical, A. terreus GP1; conditions: for inhibition of FAOD-L activity, in words: PCMB 0.1 mM, others 1 mM
# Description: as §1, §2
# [5] = tested on: FAOD-A originated from A. terreus IFO6365; assay: Substrate specificity of FAOD-A; assay type: biochemical
# Description: (§3) A 100 mM FZL solution was prepared by dissolving previously-obtained FZL in distilled water. To 100 μl of 45 mM 4-aminoantipyrine, 100 μl of 60 U/ml peroxidase, 100 μl of 60 mM phenol, 1 ml of 0.1 M Tris-HCl buffer (pH 8.0) and 50 μl of enzyme solution was added distilled water to total volume of 3.0 ml. The mixture was incubated at 30° C. for 2 minutes, 50 μl of 100 mM FZL solution was added thereto, and the time course of absorbance at 505 nm was measured. The amount (μmole) of hydrogen peroxide generated per minute was calculated on the basis of molar absorptivity (5.16×10^3 M^-1 cm^-1) of quinone pigment produced, and the resultant numerical value was taken as a unit(U) of enzyme activity.
# [6] = target: T2, FAOD-L originated from A. terreus GP1 (Aspergillus terreus, UniProt Q92204); assay: Substrate specificity of FAOD-L; assay type: biochemical
# T2 construct: 94 kDa by gel filtration, 48 kDa subunit, so homodimer
# T2 sequence (Q92204 1-437): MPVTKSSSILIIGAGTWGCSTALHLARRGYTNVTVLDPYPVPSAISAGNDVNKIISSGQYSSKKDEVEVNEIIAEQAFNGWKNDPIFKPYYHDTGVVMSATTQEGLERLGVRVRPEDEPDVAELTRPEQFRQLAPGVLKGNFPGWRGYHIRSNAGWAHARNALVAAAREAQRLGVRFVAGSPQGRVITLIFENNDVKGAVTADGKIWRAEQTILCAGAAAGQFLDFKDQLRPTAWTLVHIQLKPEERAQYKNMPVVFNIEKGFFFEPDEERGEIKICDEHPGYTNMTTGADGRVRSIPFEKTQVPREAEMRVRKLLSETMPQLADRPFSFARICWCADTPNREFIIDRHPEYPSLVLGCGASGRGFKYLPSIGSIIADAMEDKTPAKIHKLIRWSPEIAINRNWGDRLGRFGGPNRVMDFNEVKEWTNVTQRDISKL
# Description: as §3
# [7] = material 1 mM, 0.1 M Tris-HCl pH 8.0, 5 min at 30° C., None = 100
# [8] = substrate concentration 1.67 mM
molecule,measurement,setting,value
O=C(O)CI [Acetic iodide],relative activity (%),FAOD-A [1],66%
[Ca+2].[Cl-].[Cl-] [CaCl2],relative activity (%),FAOD-A [2]; [7],104%
same,relative activity (%),FAOD-L [3],96%
[Cl-].[Cs+] [CsCl],relative activity (%),FAOD-A [2]; [7],108%
"O=C(O)c1cc(SSc2ccc([N+](=O)[O-])c(C(=O)O)c2)ccc1[N+](=O)[O-] [DTNB, 5,5Dithiobis(2-nitrobenzoic acid)]","inhibition of FAOD-A activity, in words",FAOD-A [1],inhibit the FAOD-A activity completely
same,"inhibition of FAOD-L activity, in words",FAOD-L [4],inhibit the FAOD-L activity strongly
O=S(=O)([O-])[O-].[Fe+2] [FeSO4],relative activity (%),FAOD-L [3],95%
[Cl-].[Li+] [LiCl],relative activity (%),FAOD-A [2]; [7],103%
[Cl-].[Cl-].[Mg+2] [MgCl2],relative activity (%),FAOD-A [2]; [7],108%
same,relative activity (%),FAOD-L [3],101%
[Cl][Mn][Cl] [MnCl2],"effect of metal ion on FAOD-A, in words",FAOD-A [2],inhibitory
same,relative activity (%),FAOD-A [2]; [7],59%
same,relative activity (%),FAOD-L [3],101%
O=C(N[C@@H](CCCCNCC(=O)[C@@H](O)[C@H](O)[C@H](O)CO)C(=O)O)OCc1ccccc1 [N^ε -fructosyl N^α -Z-lysine],Specific activity (%),[5]; [8],100%
same,Specific activity (%),[6]; [8],100%
[Cl-].[Na+] [NaCl],relative activity (%),FAOD-A [2]; pH 8,104%
[Cl-].[Rb+] [RbCl],relative activity (%),FAOD-A [2]; [7],107%
[Co] [cobalt],"effect of metal ion on FAOD-A, in words",FAOD-A [2],inhibitory
[Cu+2] [copper],"effect of metal ion on FAOD-L, in words",FAOD-L [3],inhibitory
NN [hydrazine],"inhibition of FAOD-A activity, in words",FAOD-A [1],inhibit the FAOD-A activity completely
same,"inhibition of FAOD-L activity, in words",FAOD-L [4],inhibit the FAOD-L activity strongly
NO [hydroxylamine],relative activity (%),"FAOD-A [1]; material 1 mM, None = 100",10%
same,relative activity (%),"FAOD-L [4]; material 1 mM, None = 100",2%
c1cnc2c(c1)ccc1cccnc12 [o-Phenanthroline],relative activity (%),"FAOD-A [1]; material 1 mM, None = 100",62%
"O=C(O)c1cc[c]([Hg][Cl])cc1 [p-CMB, parachloro mercuric benzoate]","inhibition of FAOD-A activity, in words",FAOD-A [1],inhibit the FAOD-A activity completely
same,"inhibition of FAOD-L activity, in words",FAOD-L [4],inhibit the FAOD-L activity strongly
NNc1ccccc1 [phenylhydrazine],"inhibition of FAOD-A activity, in words",FAOD-A [1],inhibit the FAOD-A activity completely
NNC(N)=O [semicarbazide],relative activity (%),"FAOD-A [1]; material 1 mM, None = 100",64%
[Ag+] [silver],"effect of metal ion on FAOD-L, in words",FAOD-L [3],inhibited completely
[Zn+2] [zinc],"effect of metal ion on FAOD-A, in words",FAOD-A [2],inhibited
same,"effect of metal ion on FAOD-L, in words",FAOD-L [3],inhibitory
"c1ccc(-c2ccccn2)nc1 [α,α-Dipyridyl]",relative activity (%),"FAOD-A [1]; material 1 mM, None = 100",67%
Fructosyl valine,Specific activity (%),[5]; [8],20.5%
same,Specific activity (%),[6]; [8],32.1%
N^ε -Fructosylpoly-L-lysine,Specific activity (%),[5]; substrate concentration 0.02%,2.0%
same,Specific activity (%),[6]; substrate concentration 0.02%,0.30%
mercury,"effect of metal ion on FAOD-A, in words",FAOD-A [2],inhibited
same,"effect of metal ion on FAOD-L, in words",FAOD-L [3],inhibited completely
